In patent publication US7105550B2, “2,4-disubstituted thiazolyl derivatives” (priority 2000, dated 2006):

Assays:
TNF-α production = assay: In vitro inhibition of TNF-α production in human blood; assay type: cell-based; conditions: human whole blood, lipopolysaccharide stimulation
Description: (§1) Human Whole Blood Stimulation
(§2) Peripheral blood from healthy male donors was drawn into heparinized syringes (12.5 U heparin/ml). Blood samples were three-fold diluted in RMPI 1640 medium (Life Technologies, Belgium) supplemented with 2 mM L-glutamine, 100 U/ml penicillin and 100 μg/ml streptomycin, and 300 μl fractions were distributed in 24-well multidisc plates (Nunc, Roskilde, Denmark). Blood samples were preincubated (60 minutes at 37° C.) in a humidified 6% CO2-atmosphere with 100 A1 of drug solvent (final concentration 0.02% dimethylsulfoxide in RPMI 1640) or with 100 μl of an appropriate dose of test compound before being stimulated by the addition of 100 μl of lipopolysaccharide at a final concentration of 100 ng/ml. After 6 hours, cell-free supernatant fluids were collected by centrifugation and stored at −20° C. until tested for the presence of TNF-α.
(§3) Cytokine protein concentrations were determined by sandwich ELISA as described in Van Wauwe et al. (1996, Inflamm Res, 45, 357–363). Murine monoclonals used as capture antibodies to human cytokines were obtained from R&D Systems (Abingdon, United Kingdom) and code named MAB210 and MAB611 for TNF-α and IL-12 respectively. Butinylated goat polyclonal antibodies used to detect human cytokines were from R&D Systems (BAF210, BAF219). Cytokine levels were calculated from standard curves using recombinant cytokines supplied by R&D Systems.

IL-12 production = assay: In vitro inhibition of IL-12 production in human blood; assay type: cell-based; conditions: human whole blood, lipopolysaccharide 100 ng/ml, 24 hours
Description: as §1
as §2, with “100 μl” for “100 A1”, “After 24” for “After 6”, “of IL-12.” for “of TNF-α.”
as §3

Row | SMILES | % inhib. TNF-α (TNF-α production; test dose 1 × 10^−6 M) [%] | % inhib. TNF-α (TNF-α production; test dose 1 × 10^−7 M) [%] | % inhib. IL-12 (p40) (IL-12 production; test dose 1 × 10^−6 M) [%] | % inhib. IL-12 (p40) (IL-12 production; test dose 1 × 10^−7 M) [%]
1 | Cl.c1ccc(Nc2nc(-c3c[nH]c4ccccc34)cs2)cc1 [Compound 9] | 37 | 39 | 49 | 53
2 | Cc1cccc(Nc2nc(-c3cnc4ccccn34)cs2)c1.Cl [Compound 31] | 55 | 49 | 66 | 68
3 | Cc1ccc(Nc2nc(-c3cnc4ccccn34)cs2)cc1.Cl [Compound 39] | 53 | 59 | 64 | 71
4 | Cl.Clc1cccc(Nc2nc(-c3cnc4ccccn34)cs2)c1Cl.O [Compound 45] | 49 | 48 | 64 | 65
5 | Br.COc1ccc(Nc2nc(-c3cnc4ccccn34)cs2)cc1 [Compound 74] | 56 | 48 | 70 | 67
6 | Br.FC(F)(F)c1cccc(Nc2nc(-c3cnc4ccccn34)cs2)c1 [Compound 81] | 51 | 47 | 65 | 67
7 | Cl.Cl.Clc1cccc(Nc2nc(-c3c[nH]c4ncccc34)cs2)c1Cl [Compound 166] | 48 | 37 | 62 | 55
8 | Brc1cccc(Nc2nc(-c3cnc4ccccn34)cs2)c1 [Compound 466] | 57 | 49 | 95 | 86
9 | Cc1ccc(Nc2nc(-c3cnc4ccccn34)cs2)cc1Cl.Cl [Compound 476] | 58 | 53 | 75 | 71
10 | Brc1ccc(Nc2nc(-c3cnc4ccccn34)cs2)cc1.Cl [Compound 509] | 46 | 54 | 64 | 68
11 | Br.Cc1ncc(-c2csc(Nc3ccc(Cl)nc3)n2)n1C [Compound 527] | 37 | 43 | 61 | 66
12 | Cl.Fc1cccc(-c2csc(Nc3cccc(C(F)(F)F)c3)n2)c1 [Compound 643] | 64 | 59 | 75 | 72
13 | Br.FC(F)(F)c1cccc(Nc2nc(-c3cnc4ccccc4c3)cs2)c1.O [compound 100] | 43 | 41 | 53 | 51
14 | Br.FC(F)(F)c1cccc(Nc2nc(-c3cccnc3)cs2)c1 [compound 101] | 54 | 53 | 62 | 65
15 | Br.Cc1cccc(Nc2nc(-c3cnc4cnccn34)cs2)c1.O [compound 115] | 58 | 53 | 75 | 67
16 | Br.Cc1cccc(Nc2nc(-c3cnn4ccccc34)cs2)c1 [compound 119] | 49 | 49 | 62 | 62
17 | Br.Cc1ccc(Nc2nc(-c3cnc4ncccn34)cs2)cc1Cl [compound 286] | 50 | 48 | 60 | 63
18 | Cl.Clc1cccc(Nc2nc(-c3ncc4ccccn34)cs2)c1Cl [compound 410] | 39 | 43 | 53 | 58
19 | FC(F)(F)c1cccc(Nc2nc(-c3cncnc3)cs2)c1 [compound 517] | 61 | 57 | 74 | 68
20 | Cl.FC(F)(F)c1cccc(Nc2nc(-c3ccoc3)cs2)c1 [compound 518] | 38 | 44 | 62 | 59
21 | Cl.FC(F)(F)c1cccc(Nc2nc(-c3cnc4sccn34)cs2)c1 [compound 549] | 50 | 47 | 74 | 71
22 | Cl.Clc1cccc(Nc2nc(-c3cnc4sccn34)cs2)c1Cl [compound 551] | 44 | 40 | 71 | 71
23 | COc1ccc(Nc2nc(-c3cnc4ccccn34)cs2)cn1 [compound 573] | 53 | 45 | 67 | 61
24 | Cc1ccc(Nc2nc(-c3cnc4ccccn34)cs2)cn1.Cl.Cl.O.O [compound 577] | 50 | 49 | 77 | 71
25 | Cl.c1ccn2c(-c3csc(Nc4ccc5c(c4)CCO5)n3)cnc2c1 [compound 579] | 49 | 50 | 72 | 75
26 | Cl.FC(F)(F)c1cncc(Nc2nc(-c3cnc4ccccn34)cs2)c1 [compound 584] | 53 | 49 | 75 | 68
27 | Cl.c1ccn2c(-c3csc(Nc4ccc5ncsc5c4)n3)cnc2c1 [compound 587] | 56 | 56 | 79 | 75
